{"source": "patent US5589510A", "about": "“Method for inhibiting retroviral infection by administering a naphthalenesulfonic acid compound” (priority 1995, dated 1996)", "key": {"retroviruses": {"test_system": "retroviruses", "conditions": "literature (Ito et al.); cited from earlier work"}, "[1]": {"test_system": "TA98, TA1535, TA1537, TA1538, TA100 and W2P2uvr", "assay": "Ames Test (in the presence of S9)", "type": "cell-based, Salmonella typhimurium", "excerpt": "Six Salmonella typhimuriumstrai strains, TA98, TA1535, TA1537, TA1538, TA100 and W2P2uvr were used in this experiment."}, "LD50, intravenous, mice": {"assay": "LD50, intravenous, mice", "type": "in vivo", "conditions": "female mice, mortalities within 1 week; for LD50 at 168 h: mouse, in vivo", "protocol": "The test material was administered intravenously to 5 female mice in five increasing doses. Mortalities were recorded within 1 week, and the LD50 was determined with the aid of statistical calculations."}, "standard Ames Test": {"test_system": "standard Ames Test", "conditions": "literature (K-T. Chung et al); cited from earlier work"}, "[2]": {"target": "T1, recombinant reverse transcriptase (RT) (Human immunodeficiency virus type 1 group M subtype B, UniProt P04585)", "T1 construct": "purchased Worthington Biochemical Corporation", "assay": "Reverse transcriptase inhibition assay", "type": "biochemical, HIV-1", "conditions": "at 0.5 μM", "protocol": "Inhibition of recombinant reverse transcriptase (RT) was performed by using commercially available Boehringer Mannheim RT assay kit (Cat. No. 1468 120) based on incorporation of digoxigenin labeled dUTP into DNA. Recombinant enzyme from HIV-1 was purchased from Worthington Biochemical Corporation. The level of anti-RT activity in the sample was determined by measurement of absorbance using an ELISA reader at 405 nm."}, "HIV rgp120 / CD4 cells": {"test_system": "HIV rgp120 / CD4 cells", "conditions": "literature (Balzarini et al.); cited from earlier work"}, "HIV-1 RF": {"test_system": "HIV-1 RF", "assay": "Antiviral assay, Experimental Protocol I (compound added after infection)", "type": "cell-based", "conditions": "Human immunodeficiency virus 1, 240 h, 10% FCS, p24 ELISA, read-out: % Inhibition (after day 10)"}, "HIV-1 patient isolate IH": {"test_system": "HIV-1 patient isolate IH", "assay": "Inhibition of HIV-1 patient isolate IH in CD4^+ cells", "type": "cell-based", "conditions": "Human immunodeficiency virus 1, 288 h, 10% FCS, read-out: % Inhibition (after day 12)", "protocol": "The inhibitory effects of additional naphthalenesulfonic acid compounds were tested as follows: Experimental Details:\nPBMCs were activated for 48 hours in conditioned medium containing PHA at a concentration of 4 μg/ml. Thereafter 10^6 cells were plated in each of the 24 well plates containing 10% FCS or 50% FCS. The test compound, previously dissolved in a glucose solution (1 mg/ml), was then added to each of the wells to achieve the appropriate concentration. The plate was then incubated overnight (about 15 hours) after which 50 μl of cell-free HIV-1 patient isolate was added to each well. The plates were incubated for further 6 to 8 hours after which all free floating solution of virus was washed off. Washing was performed four times.\nAfter removal of the virus, all cultures were resuspended in conditioned medium containing 10% FCS.\nFor control experiments virus growth was monitored in either 10% FCS or 50% FCS throughout the observation period (15 days)."}, "syncytium formation": {"test_system": "syncytium formation", "conditions": "literature (Mohan et al.; Tan et al.; Baba et al.); cited from earlier work"}}, "data": [{"molecule": "dextran sulfate", "values": [{"measurement": "anti-retroviral activity", "setting": "retroviruses", "result": "known anti-retroviral compounds"}]}, {"molecule": "Cc1cc(-c2ccc(/N=N/c3ccc4c(S(=O)(=O)O)cc(S(=O)(=O)O)c(N)c4c3O)c(C)c2)ccc1/N=N/c1ccc2c(S(=O)(=O)O)cc(S(=O)(=O)O)c(N)c2c1O", "note": "[Evans Blue, reference compound]", "values": [{"measurement": "Ames Test result", "setting": "[1]", "result": "Positive"}, {"measurement": "Ames Test, specific mutagenic activity", "setting": "[1]; the higher the value, the higher the mutagenicity", "result": 10, "unit": "colony no/μg"}, {"measurement": "LD50 at 168 h", "setting": "LD50, intravenous, mice", "result": 100, "unit": "mg/kg"}, {"measurement": "mutagenic effects in Ames Test", "setting": "standard Ames Test", "result": "strong mutagenic effects"}, {"measurement": "inhibition at 0.5 µM", "setting": "[2]", "result": 48, "unit": "%"}, {"measurement": "inhibition of interaction of HIV rgp120 with CD4 cells", "setting": "HIV rgp120 / CD4 cells", "result": "inhibitor of the interaction of HIV rgp120 with CD4 cells"}]}, {"molecule": "COc1cc(N=Nc2c(S(=O)(=O)O)cc3cc(S(=O)(=O)O)cc(NC(=O)c4cccc5ccccc45)c3c2O)c(OC)cc1N=Nc1c(S(=O)(=O)O)cc2cc(S(=O)(=O)O)cc(NC(=O)c3ccc(Cl)cc3Cl)c2c1O", "note": "[Compound 1]", "values": [{"measurement": "Ames Test result", "setting": "[1]", "result": "Negative"}, {"measurement": "LD50 at 168 h", "setting": "LD50, intravenous, mice", "result": 150, "unit": "mg/kg"}, {"measurement": "inhibition at 0.5 µM", "setting": "[2]", "result": 70, "unit": "%"}, {"measurement": "inhibition at 0.6 µg/mL", "setting": "HIV-1 RF; 0.6 μg/ml", "result": 98, "unit": "%"}, {"measurement": "inhibition at 1.25 µg/mL", "setting": "HIV-1 RF; 1.25 μg/ml", "result": 100, "unit": "%"}, {"measurement": "inhibition at 2.5 µg/mL", "setting": "HIV-1 RF; 2.5 μg/ml", "result": 100, "unit": "%"}, {"measurement": "inhibition at 5 µg/mL", "setting": "HIV-1 RF; 5 μg/ml", "result": 100, "unit": "%"}, {"measurement": "inhibition at 10 µg/mL", "setting": "HIV-1 patient isolate IH; 10 μg/ml", "result": 50, "unit": "%"}, {"measurement": "inhibition at 20 µg/mL", "setting": "HIV-1 patient isolate IH; 20 μg/ml", "result": 100, "unit": "%"}]}, {"molecule": "CC1=C/C(=C(\\c2ccc(N)c(S(=O)(=O)[O-])c2)c2ccc(N)c(S(=O)(=O)O)c2)C=C(S(=O)(=O)[O-])C1=N.[Na+].[Na+]", "note": "[Fuchsin Acid, reference compound]", "values": [{"measurement": "inhibition of syncytium formation", "setting": "syncytium formation", "result": "inhibitors of syncytium formation"}, {"measurement": "LD50", "setting": "LD50, intravenous, mice; 10080 min", "result": 100, "unit": "mg/kg"}]}]}
